Results published in publication PMC9655037, “Alternation of Organ-Specific Exposure in LPS-Induced Pneumonia Mice after the Inhalation of Tetrandrine Is Governed by Metabolizing Enzyme Suppression and Lysosomal Trapping” (International Journal of Molecular Sciences, 2022).
Where “and” joins values, the source holds several entries; their conditions need not be identical. Equal values may be shown once. Read-outs that look alike come from different tables or passages of the source.

Assays:
[1] = Metabolic stability of TET in NADPH-supplemented liver microsomes from normal and LPS-induced ALI mice; type: in vitro ADME, mouse; conditions: for half-life at 1 µM: mouse, microsomes, 1.0 µM TET, 0.5 mg/mL protein, 37 °C, read-out: In vitro t1/2
Procedure: Liver and pulmonary microsomes from normal and LPS-induced pulmonary infected mice were isolated according to the conventional differential centrifugation approach. In brief, six normal mice and six acute pneumonia mice (48 h after i.t. administration of LPS) were sacrificed. Lungs and livers were harvested and rinsed with ice NS. The tissues were weighed and homogenized with 50 mM Tris buffer solution (TBS, m:v = 1:3). The prepared homogenate was then immediately centrifuged at 10,000× g at 4 °C for 20 min. The resulting supernatant was further centrifuged at 105,000× g at 4 °C for 60 min to yield mouse liver microsomes (MLM) and mouse pulmonary microsomes (MPM). The sediment was resuspended with storage buffer (50 mM TBS containing 0.25 M sucrose and 20% glycerol) and stored at −80 °C immediately. The protein content of the harvested microsomes was measured following the BCA protein assay protocol.
TET (1 μM, 1% acetonitrile) was incubated in normal or pneumonia mice liver microsomes or pulmonary microsomes (0.5 mg/mL) diluted with 100 mM PBS (pH 7.4) containing MgCl2 (3 mM). After preincubation of 5 min, the reaction was initiated by adding NADPH (final concentration of 1 mM) at 37 °C. Periodic aliquots of the incubation mixture at 0, 15, 30, and 45 min were removed, and the protein was precipitated with ice-cold acetonitrile containing IS. After centrifugation, the supernatant was collected and analyzed for the depletion of TET by LC-MS/MS.
The in vitro t1/2 in mouse liver microsomal incubation was calculated from the semi-log plot of percentage remaining vs. incubation time and intrinsic clearance (CLint,app mL/min/mg protein) was calculated as Equation (2).
(3) CLint,scaled=CLint,app×45mg microsomes/g liver×g liver/kg body weight (4) CLh,blood=Q×fu,p/Rb/p×CLint/fu,mic/Q+CLint·fu,p/Rb·CLint/fu,mic

OATP1B1 = target: T1, OATP1B1 (Homo sapiens, UniProt Q9Y6L6); conditions: 5 min, 5 µM
T1 sequence (Q9Y6L6 1-691): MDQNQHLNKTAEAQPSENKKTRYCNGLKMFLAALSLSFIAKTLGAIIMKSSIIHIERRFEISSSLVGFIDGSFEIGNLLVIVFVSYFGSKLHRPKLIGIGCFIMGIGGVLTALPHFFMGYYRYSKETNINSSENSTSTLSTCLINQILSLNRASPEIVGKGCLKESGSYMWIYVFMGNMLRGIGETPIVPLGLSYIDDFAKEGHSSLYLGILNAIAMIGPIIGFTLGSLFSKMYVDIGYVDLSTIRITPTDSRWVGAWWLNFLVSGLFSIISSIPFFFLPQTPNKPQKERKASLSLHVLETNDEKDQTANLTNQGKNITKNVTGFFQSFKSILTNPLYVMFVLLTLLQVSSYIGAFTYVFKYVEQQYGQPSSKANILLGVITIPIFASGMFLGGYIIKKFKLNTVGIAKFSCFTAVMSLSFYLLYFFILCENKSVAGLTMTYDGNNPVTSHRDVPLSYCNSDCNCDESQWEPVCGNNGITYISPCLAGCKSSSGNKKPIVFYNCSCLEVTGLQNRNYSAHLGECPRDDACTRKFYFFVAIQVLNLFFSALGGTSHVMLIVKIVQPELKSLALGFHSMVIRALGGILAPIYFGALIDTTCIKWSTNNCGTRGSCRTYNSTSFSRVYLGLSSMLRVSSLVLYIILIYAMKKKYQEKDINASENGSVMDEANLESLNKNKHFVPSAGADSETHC
Procedure: Expressing OATP1B1/OATP1B3 or MOCK HEK293 cells were utilized to evaluate whether TET is a substrate of these two SLC transporters. Cell culture was performed as mentioned above. Cells were seeded on 96-well plates at the density of 0.8 × 10^5 cells/well. The culture medium was replaced with a medium containing 5 mM sodium butyrate for 24 h before the transport study to enhance the expression of transporters. For the transport assay, the DMEM media were removed and the cells were washed with pre-warmed Krebs–Henseleit buffer twice (0.1 mL/well). The second washing buffer was kept in the wells and the plate was incubated at 37 °C for 5 min before the uptake assay was initiated. […] The incubation solution was removed and the cells were washed with ice-cold transportation buffer three times (0.1 mL/well). […]
In the uptake study of TET by OATP1B1 and OATP1B3 expressing the HEK293 cell line, the uptake clearance (U) of the substrate was calculated according to Equation (5), the transporter-mediated uptake ratio (UR) was calculated by dividing the uptake clearance from transporter-expressing cells to that from the mock cells according to Equation (6), and the inhibition ratio (IR) was calculated according to Equation (7), where p represents the protein content and T is the duration of the incubation time. […]

MDR1 (P-gp) = MDR1 (P-gp) (Homo sapiens, UniProt P08183); test: in vitro
MDR1 (P-gp), sequence (P08183 whole entry): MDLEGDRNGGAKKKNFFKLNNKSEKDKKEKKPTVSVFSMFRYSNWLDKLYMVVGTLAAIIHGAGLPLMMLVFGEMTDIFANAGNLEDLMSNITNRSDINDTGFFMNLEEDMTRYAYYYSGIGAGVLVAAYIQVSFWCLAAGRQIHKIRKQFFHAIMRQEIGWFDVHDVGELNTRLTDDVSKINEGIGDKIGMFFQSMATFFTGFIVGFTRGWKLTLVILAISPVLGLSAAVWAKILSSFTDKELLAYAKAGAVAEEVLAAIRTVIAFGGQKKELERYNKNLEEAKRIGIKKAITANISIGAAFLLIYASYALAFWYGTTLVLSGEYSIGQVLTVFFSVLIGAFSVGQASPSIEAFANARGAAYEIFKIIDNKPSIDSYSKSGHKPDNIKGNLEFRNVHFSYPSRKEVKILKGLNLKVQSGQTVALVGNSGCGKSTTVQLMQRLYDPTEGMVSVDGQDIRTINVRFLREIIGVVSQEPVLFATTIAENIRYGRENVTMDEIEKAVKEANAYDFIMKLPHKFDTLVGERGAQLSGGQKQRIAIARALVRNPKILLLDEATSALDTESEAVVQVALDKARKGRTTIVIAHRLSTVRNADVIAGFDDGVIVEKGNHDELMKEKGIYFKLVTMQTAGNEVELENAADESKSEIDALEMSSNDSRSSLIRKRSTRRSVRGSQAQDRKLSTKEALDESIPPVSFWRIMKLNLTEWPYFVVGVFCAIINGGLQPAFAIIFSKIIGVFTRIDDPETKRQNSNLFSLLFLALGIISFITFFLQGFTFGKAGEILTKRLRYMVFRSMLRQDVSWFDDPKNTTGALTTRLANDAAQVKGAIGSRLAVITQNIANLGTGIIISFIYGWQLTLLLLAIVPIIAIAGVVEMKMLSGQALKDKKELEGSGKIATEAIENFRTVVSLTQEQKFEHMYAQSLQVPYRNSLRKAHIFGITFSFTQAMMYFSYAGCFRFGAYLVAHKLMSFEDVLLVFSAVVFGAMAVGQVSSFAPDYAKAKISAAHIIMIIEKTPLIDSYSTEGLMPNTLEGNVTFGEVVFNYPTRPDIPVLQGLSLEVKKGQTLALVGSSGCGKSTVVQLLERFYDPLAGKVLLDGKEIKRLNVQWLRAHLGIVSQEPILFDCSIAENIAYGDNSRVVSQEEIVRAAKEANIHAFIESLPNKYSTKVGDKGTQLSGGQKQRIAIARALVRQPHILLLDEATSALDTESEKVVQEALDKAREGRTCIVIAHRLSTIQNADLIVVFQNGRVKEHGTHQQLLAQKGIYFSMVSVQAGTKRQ
Procedure: MDR1 expressing LLC-PK1 cells or MOCK LLC-PK1 cells were utilized to identify whether P-gp is involved in the efflux transport across the membrane barrier. Cells were cultured as described above. Cells were seeded at a density of 2 × 10^4 in Millicell® 24-well cell culture plates with a 6.5 mm insert (0.4 µm polycarbonate membrane) from Corning (Kennebunk, ME, USA) 7 days before the experiments. On the day of the experiment, transepithelial electrical resistance (TEER) was measured to assess monolayer integrity. After washing the cells twice with HBSS, transport experiments in either the apical-to-basolateral direction (A-B) or the basolateral-to-apical direction (B-A) were conducted. […] After incubating the plates at 37 °C for 2 h, samples from the receiving and donor wells (50 μL) were taken simultaneously. All the samples were stored at −40 °C for LC-MS/MS analysis.
In the bidirectional transport study in LLC-PK1 cells, the following equations were used to calculate Papp values and the MDR1 efflux ratio.

CYP3A = conditions: cited from earlier work

With `COc1ccc2cc1Oc1ccc(cc1)C[C@H]1c3cc(c(OC)cc3CCN1C)Oc1c(OC)c(OC)cc3c1[C@H](C2)N(C)CC3` [TET, Tetrandrine] the “CLhep,blood (hepatic clearance, well-stirred model)” value ([1]; LPS-treated mice liver microsomes) was 1.48 mL/min/kg and 1.48 ± 0.0136 mL/min/kg, the half-life at 1 µM ([1]; pH 7.4, LPS-treated mice liver microsomes) was 1.4 ± 0.013 h and the half-life at 1 µM ([1]; pH 7.4, normal mice liver microsomes) was 0.88 ± 0.0292 h. The “CLhep,blood (hepatic clearance, well-stirred model)” value ([1]; normal mice liver microsomes) was 2.33 mL/min/kg and 2.33 ± 0.075 mL/min/kg, the “Inhibition Ratio” value (OATP1B1) was 11.1 and the “Uptake Ratio” value (OATP1B1) was 1.2. The Papp A→B at 2 h (MDR1 (P-gp)) was 0.52 ± 0.19 ×10⁻⁶ cm/s, the Papp B→A at 2 h (MDR1 (P-gp); human, LLC-PK1) was 14 ± 2.95 ×10⁻⁶ cm/s and the efflux ratio at 2 h (MDR1 (P-gp); human, LLC-PK1) was 32.5. The “fm (CYP3A, major isoform toward TET)” value (CYP3A) was greater than 90%.
